Laboratory results: patent publication US10287276B2, “Heteroaryl-1,2,4-triazole and heteroaryl-tetrazole compounds for controlling ectoparasites” (Elanco Tiergesundheit AG, priority 2016, dated 2019)

Key:
[1] = system: Rhipicephalus sanguineus Nymphs; test: Activity in vivo against Rhipicephalus sanguineus nymphs on Mongolian gerbils; settings: topical, 0 h, pour on application day 0, tick number reduction vs placebo, Abbott's formula, read-out: efficacy (EC90)
Experimental: On day 0, gerbils are treated with the test compound at a given dose by pour on application. On day +1 (+2), the animals are infested with nymphs of R. sanguineus. Ticks are left on the animals until full repletion. Seven days after infestation nymphs dropped off fully engorged are collected and counted. They are kept until molting to also evaluate growth regulating activity of the test compound. Efficacy in killing (and growth regulating) is expressed as a tick number (and molted tick number) reduction in comparison with a placebo treated group, using the Abbott's formula:
n=number of live ticks. T=treated group. Co=control/placebo group.

[2] = system: Rhipicephalus sanguineus (Dog Tick); test: Activity in vitro against Rhipicephalus sanguineus (dog tick), Assay A, contact test; settings: adult ticks; for pest or weed control at 100 ppm: Rhipicephalus sanguineus, 168 h, 28° C. and 80% relative humidity for 7 days, read-out: efficacy (EC80)
Experimental: Activity In Vitro Against Rhipicephalus sanguineus (Dog Tick)—Assay A
A contact test is performed by pre-coating microplate with serial dilution of compound allowing evaluating anti-parasitic activity by contact against ticks. A mixed adult tick population is then distributed to each well of the plate and incubated at 28° C. and 80% relative humidity for 7 days, during which the effect of the test compound is monitored. Acaricidal activity is confirmed if and when adult ticks are dead.

Lice (Polyplax serrata) = test: Activity in vivo against lice (Polyplax serrata) in mice (topical); settings: pour-on application, live lice on day +4 and +14, Henderson & Tilton formula, read-out: efficacy (EC90)
Experimental: Activity In Vivo Against Lice (Polyplax serrata) in Mice (Topical) Mice naturally infected with P. serrata are treated with the formulated test compound on day 0 by pour-on application. On day +4 and +14, efficacy is evaluated by counting the number of live lice under a binocular. Efficacy at the two time points is expressed as a comparison of lice numbers counted on the same mouse before treatment, using the Henderson & Tilton formula, taking also into account lice numbers found on mice treated with the empty formulation (placebo group): [formula] n=number of lice, T=treated group, Co=control/placebo group.

[3] = system: Lucilla Cuprina (Australian sheep blowfly); test: Activity in vitro against Lucilla cuprina (Australian sheep blowfly), Assay A; settings: eggs on agar-based medium; for pest or weed control at 32 ppm: Lucilia cuprina, 96 h, 4 days at 28° C. and 60% relative humidity, read-out: efficacy (EC80)
Experimental: Activity in vitro against Lucilla Cuprina (Australian sheep blowfly)—Assay A
Freshly laid blowfly eggs are used to seed a suitably formatted microplate containing the test substances to be evaluated for antiparasitic activity. Each compound is tested by serial dilution in order to determine its minimum efficacy dose. The test compounds are embedded in an agar-based nutritive medium allowing the full development of the eggs into 3rd instar larvae. The incubation lasts for 4 days at 28° C. and 60% relative humidity. Egg-hatching and ensuing larval development are also recorded to identify a possible growth-regulating activity.

[4] = system: Engorged Female Rhipicephalus microplus (Cattle Tick); test: Activity in vitro against engorged female Rhipicephalus microplus (cattle tick), contact test; settings: 672 h, organophosphorous-resistant Ultimo strain, evaluation 28 days later on mortality, oviposition and hatched larvae, read-out: efficacy (EC80)
Experimental: Activity In Vitro Against Engorged Female Rhipicephalus microplus (Cattle Tick)
A contact test is performed by pre-coating 6-well microplates with serial dilution of the compound to be evaluated for anti-parasitic activity. 10 engorged female ticks of the organophosphorous-resistant Ultimo strain are distributed to each well in triplicates. Plates are then incubated at 28° C. and 80% relative humidity. Evaluation takes place 28 days later based on mortality, oviposition and hatched larvae. […] Activity In Vivo Against Rhipicephalus sanguineus Nymphs on Mongolian Gerbils (Meriones unguiculatus) (Spray Application)

[5] = system: Ctenocephalides Felis (Cat Flea); test: Activity in vitro against Ctenocephalides felis (cat flea), Assay A; settings: adult fleas fed on treated blood for 24 h; for pest or weed control at 100 ppm: Ctenocephalides felis, dead fleas counted, read-out: efficacy (EC80)
Experimental: Activity In Vitro Against Ctenocephalides Felis (Cat Flea)—Assay A
A mixed adult population of fleas is placed in a suitably formatted 96-well plate allowing fleas to access and feed on treated blood via an artificial feeding system. Fleas are fed on treated blood for 24 h, after which the compound effect is recorded. Insecticidal activity is determined on the basis of the number of dead fleas recovered from the feeding system.

CC(c1ncnn1-c1ccccn1)N(CCC(F)(F)F)C(=O)c1cc(C(F)(F)F)cc(C(F)(F)F)c1 (stereo not shown) [Example 12, N-[1-[2-(2-Pyridyl)-1,2,4-triazol-3-yl]ethyl]-3,5-bis(trifluoromethyl)-N-(3,3,3-trifluoropropyl)benzamide]
inhibition in vivo at 32 mg/kg [1]: > 90%
pest or weed control at 100 ppm [2]: > 80%
inhibition in vivo at 32 mg/kg (Lice (Polyplax serrata)): > 90%
pest or weed control at 32 ppm [3]: > 80%
pest or weed control at 200 ppm [4]: > 80%

C#CCN(C(=O)c1cc(C(F)(F)F)cc(C(F)(F)F)c1)C(C)c1ncnn1-c1ncccn1 (stereo not shown) [Example 35, N-Prop-2-ynyl-N-[1-(2-pyrimidin-2-yl-1,2,4-triazol-3-yl)ethyl]-3,5-bis(trifluoromethyl)benzamide]
inhibition in vivo at 32 mg/kg [1]: > 90%
pest or weed control at 100 ppm [2]: > 80%
inhibition in vivo at 32 mg/kg (Lice (Polyplax serrata)): > 90%
pest or weed control at 100 ppm [5]: > 80%
pest or weed control at 32 ppm [3]: > 80%
pest or weed control at 200 ppm [4]: > 80%

C#CCN(C(=O)c1cc(Cl)cc(C(F)(F)F)c1)C(C)c1ncnn1-c1ncccn1 (stereo not shown) [Example 41, 3-Chloro-N-prop-2-ynyl-N-[1-(2-pyrimidin-2-yl-1,2,4-triazol-3-yl)ethyl]-5-(trifluoromethyl)benzamide]
inhibition in vivo at 32 mg/kg [1]: > 90%
pest or weed control at 100 ppm [2]: > 80%
EC50 ([2]; 7 days): 32 ppm
inhibition in vivo at 32 mg/kg (Lice (Polyplax serrata)): > 90%
pest or weed control at 100 ppm [5]: > 80%
pest or weed control at 32 ppm [3]: > 80%
EC50 ([3]; 4 days at 28° C.): 1 ppm
pest or weed control at 200 ppm [4]: > 80%

C#CCN(C(=O)c1cc(Cl)cc(OC(F)(F)F)c1)C(C)c1ncnn1-c1ccccn1 (stereo not shown) [Example 18, 3-Chloro-N-prop-2-ynyl-N-[1-[2-(2-pyridyl)-1,2,4-triazol-3-yl]ethyl]-5-(trifluoromethoxy)benzamide]
inhibition in vivo at 32 mg/kg [1]: > 90%
inhibition in vivo at 32 mg/kg (Lice (Polyplax serrata)): > 90%
pest or weed control at 100 ppm [5]: > 80%
EC80 [5]: 10 ppm
pest or weed control at 32 ppm [3]: > 80%
pest or weed control at 200 ppm [4]: > 80%

CC(c1ncnn1-c1ncccn1)N(CC1CC1)C(=O)c1cc(C(F)(F)F)cc(C(F)(F)F)c1 (stereo not shown) [Example 48, N-(Cyclopropylmethyl)-N-[1-(2-pyrimidin-2-yl-1,2,4-triazol-3-yl)ethyl]-3,5-bis(trifluoromethyl)benzamide]
inhibition in vivo at 32 mg/kg [1]: > 90%
pest or weed control at 100 ppm [2]: > 80%
inhibition in vivo at 32 mg/kg (Lice (Polyplax serrata)): > 90%
pest or weed control at 100 ppm [5]: > 80%
pest or weed control at 32 ppm [3]: > 80%
pest or weed control at 200 ppm [4]: > 80%

CC(c1ncnn1-c1ncccn1)N(CC1CC1)C(=O)c1cc(Cl)cc(C(F)(F)F)c1 (stereo not shown) [Example 40, 3-Chloro-N-(cyclopropylmethyl)-N-[1-(2-pyrimidin-2-yl-1,2,4-triazol-3-yl)ethyl]-5-(trifluoromethyl)benzamide]
inhibition in vivo at 32 mg/kg [1]: > 90%
pest or weed control at 100 ppm [2]: > 80%
inhibition in vivo at 32 mg/kg (Lice (Polyplax serrata)): > 90%
pest or weed control at 100 ppm [5]: > 80%
pest or weed control at 32 ppm [3]: > 80%
pest or weed control at 200 ppm [4]: > 80%

CC(c1ncnn1-c1ccccn1)N(CC1CC1)C(=O)c1cc(Cl)cc(OC(F)(F)F)c1 (stereo not shown) [Example 10, 3-Chloro-N-(cyclopropylmethyl)-N-[1-[2-(2-pyridyl)-1,2,4-triazol-3-yl]ethyl]-5-(trifluoromethoxy)benzamide]
inhibition in vivo at 32 mg/kg [1]: > 90%
pest or weed control at 100 ppm [2]: > 80%
inhibition in vivo at 32 mg/kg (Lice (Polyplax serrata)): > 90%
pest or weed control at 100 ppm [5]: > 80%
pest or weed control at 32 ppm [3]: > 80%
pest or weed control at 200 ppm [4]: > 80%

CC(c1ncnn1-c1ncccn1)N(CCC(F)(F)F)C(=O)c1cc(C(F)(F)F)cc(C(F)(F)F)c1 (stereo not shown) [Example 20, N-[1-(2-Pyrimidin-2-yl-1,2,4-triazol-3-yl)ethyl]-3,5-bis(trifluoromethyl)-N-(3,3,3-trifluoropropyl)benzamide]
inhibition in vivo at 32 mg/kg [1]: > 90%
pest or weed control at 100 ppm [2]: > 80%
inhibition in vivo at 32 mg/kg (Lice (Polyplax serrata)): > 90%
pest or weed control at 100 ppm [5]: > 80%
pest or weed control at 32 ppm [3]: > 80%
pest or weed control at 200 ppm [4]: > 80%

CC(c1ncnn1-c1ccccn1)N(CC1CC1)C(=O)c1cc(C(F)(F)F)cc(C(F)(F)F)c1 (stereo not shown) [Example 1, N-(Cyclopropylmethyl)-N-[1-[2-(2-pyridyl)-1,24-triazol-3-yl]ethyl]-3,5-bis(trifluoromethyl)benzamide]
inhibition in vivo at 32 mg/kg [1]: > 90%
pest or weed control at 100 ppm [2]: > 80%
inhibition in vivo at 32 mg/kg (Lice (Polyplax serrata)): > 90%
pest or weed control at 100 ppm [5]: > 80%
pest or weed control at 32 ppm [3]: > 80%
pest or weed control at 200 ppm [4]: > 80%

CC(c1ncnn1-c1ncccn1)N(CCF)C(=O)c1cc(C(F)(F)F)cc(C(F)(F)F)c1 (stereo not shown) [Example 19, N-(2-Fluoroethyl)-N-[1-(2-pyrimidin-2-yl-1,2,4-triazol-3-yl]ethyl]-3,5-bis(trifluoromethyl)benzamide]
inhibition in vivo at 32 mg/kg [1]: > 90%
pest or weed control at 100 ppm [2]: > 80%
inhibition in vivo at 32 mg/kg (Lice (Polyplax serrata)): > 90%
pest or weed control at 100 ppm [5]: > 80%
pest or weed control at 32 ppm [3]: > 80%
pest or weed control at 200 ppm [4]: > 80%

COc1cnc(-n2ncnc2C(C)N(CC2CC2)C(=O)c2cc(C(F)(F)F)cc(C(F)(F)F)c2)nc1 (stereo not shown) [Example 39, N-(Cyclopropylmethyl)-N-[1-[2-(5-methoxypyrimidin-2-yl)-1,2,4-triazol-3-yl]ethyl]-3,5-bis(trifluoromethyl)benzamide]
inhibition in vivo at 32 mg/kg [1]: > 90%
pest or weed control at 100 ppm [2]: > 80%
inhibition in vivo at 32 mg/kg (Lice (Polyplax serrata)): > 90%
pest or weed control at 100 ppm [5]: > 80%
pest or weed control at 32 ppm [3]: > 80%
pest or weed control at 200 ppm [4]: > 80%

CC(c1ncnn1-c1ncccn1)N(CC1CC1)C(=O)c1cc(Cl)cc(OC(F)(F)F)c1 (stereo not shown) [Example 37, 3-chloro-N-(cyclopropylmethyl)-N-[1-(2-pyrimidin-2-yl-1,2,4-triazol-3-yl)ethyl]-5-(trifluoromethoxy)benzamide]
inhibition in vivo at 32 mg/kg [1]: > 90%
pest or weed control at 100 ppm [2]: > 80%
inhibition in vivo at 32 mg/kg (Lice (Polyplax serrata)): > 90%
pest or weed control at 100 ppm [5]: > 80%
pest or weed control at 32 ppm [3]: > 80%
pest or weed control at 200 ppm [4]: > 80%

CC(c1ncnn1-c1ccccn1)N(CCF)C(=O)c1cc(C(F)(F)F)cc(C(F)(F)F)c1 (stereo not shown) [Example 11, N-(2-Fluoroethyl)-N-[1-[2-(2-pyridyl)-1,2,4-triazol-3-yl]ethyl]-3,5-bis(trifluoromethyl)benzamide]
inhibition in vivo at 32 mg/kg [1]: > 90%
pest or weed control at 100 ppm [2]: > 80%
inhibition in vivo at 32 mg/kg (Lice (Polyplax serrata)): > 90%
pest or weed control at 100 ppm [5]: > 80%
pest or weed control at 32 ppm [3]: > 80%
pest or weed control at 200 ppm [4]: > 80%
